Reference: publication PMC10746543, “Design principles for cyclin K molecular glue degraders” (Nature Chemical Biology, 2023)
Several values for one entry are separate records, joined by “and”; a condition that tells them apart may be missing. Equal entries are not always repeated. Where two headings read alike, the source gives them in different places.

Legend:
CDK2–cyclin A = target: T1, CDK2–cyclin A (Homo sapiens, UniProt P24941); experiment: Lanthascreen kinase binding assay, CDK2; conditions: for Lanthascreen signal, sheet CDK2: raw replicates, experiment r36-r46
T1 construct: purchased Thermo Fisher
Description: (§1) Lanthascreen experiments were performed using commercially available reagents (Thermo Fisher) and according to the manufacturer’s instructions.

CDK9–cyclin T = target: T2, CDK9–cyclin T (Homo sapiens, UniProt P50750); experiment: Lanthascreen kinase binding assay, CDK9; conditions: for Lanthascreen TR-FRET signal (raw ratio), sheet CDK9: third titration set (r25), duplicates
T2 construct: purchased Thermo Fisher
Description: as §1

[1] = tested on: cyclin K–eGFP degradation reporter; experiment: Cyclin K reporter stability analysis (dual-color cyclin K–eGFP reporter); assay type: cell-based, human; conditions: source data sheet correlations; read-out: DC50
Method in brief: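 Values reflect cyclin K–eGFP levels after a 5 h exposure, expressed as the green-to-red fluorescence ratio and scaled to three vehicle-treated controls. Measurements came from HEK293T–Cas9 reporter cells by flow cytometry.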

HEK293T cells = experiment: Drug sensitivity assay (CellTiter-Glo viability) with or without MLN4924 pretreatment; assay type: cell-based, human; conditions: for EC50: Homo sapiens, HEK-293T
Method in brief: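 Luminescent ATP read-out (CellTiter-Glo) after 3 days of drug exposure, normalised to DMSO controls. Cells were HEK293T–Cas9, pretreated with 100 nM MLN4924 or DMSO for 2 h before drug dispensing.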

CDK12–cyclin K and DDB1 = target: T3, CDK12–cyclin K and DDB1 (Homo sapiens, UniProt Q16531+Q9NYV4, K965R); experiment: TR-FRET ternary complex formation assay (compound titration); assay type: binding
T3 construct: His6–CDK12 (a.a. 713–1,052); full-length or beta-propeller B domain deletion (ΔBPB: a.a. 396–705 deleted) constructs of His6–DDB1ΔBPB, StrepII–Avi–DDB1, or His6–Spy–DDB1; made in house; host or cells: Trichoplusia ni High Five insect cells (baculovirus)
Method in brief: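 TR-FRET ratio 520/490 nm; 70 μs delay before read to suppress background.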

CDK12–cyclin K = CDK12–cyclin K (Homo sapiens, UniProt Q9NYV4); experiment: Lanthascreen kinase binding assay, CDK12; conditions: for Lanthascreen raw signal, sheet CDK12: series r37, duplicates
Description: as §1

CDK12–cyclin K, sequence (Q9NYV4 713-1052): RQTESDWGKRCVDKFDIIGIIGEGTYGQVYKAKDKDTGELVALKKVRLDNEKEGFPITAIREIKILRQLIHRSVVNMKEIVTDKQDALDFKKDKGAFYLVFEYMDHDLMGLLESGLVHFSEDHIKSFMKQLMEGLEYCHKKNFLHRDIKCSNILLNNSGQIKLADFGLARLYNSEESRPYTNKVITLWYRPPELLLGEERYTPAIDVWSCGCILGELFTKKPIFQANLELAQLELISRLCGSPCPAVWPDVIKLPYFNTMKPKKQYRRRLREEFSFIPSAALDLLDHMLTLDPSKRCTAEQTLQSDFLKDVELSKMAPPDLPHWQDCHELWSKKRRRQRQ
CDK12–cyclin K, sequence (O75909 1-267 partner limits assumed): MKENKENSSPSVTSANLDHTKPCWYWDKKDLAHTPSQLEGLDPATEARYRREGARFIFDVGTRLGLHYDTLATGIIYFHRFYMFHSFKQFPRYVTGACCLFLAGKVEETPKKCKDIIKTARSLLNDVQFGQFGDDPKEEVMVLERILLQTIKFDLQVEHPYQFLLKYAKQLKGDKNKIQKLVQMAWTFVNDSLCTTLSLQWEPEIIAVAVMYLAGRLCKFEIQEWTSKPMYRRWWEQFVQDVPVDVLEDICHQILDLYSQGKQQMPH
T2 sequence (P50750 whole entry): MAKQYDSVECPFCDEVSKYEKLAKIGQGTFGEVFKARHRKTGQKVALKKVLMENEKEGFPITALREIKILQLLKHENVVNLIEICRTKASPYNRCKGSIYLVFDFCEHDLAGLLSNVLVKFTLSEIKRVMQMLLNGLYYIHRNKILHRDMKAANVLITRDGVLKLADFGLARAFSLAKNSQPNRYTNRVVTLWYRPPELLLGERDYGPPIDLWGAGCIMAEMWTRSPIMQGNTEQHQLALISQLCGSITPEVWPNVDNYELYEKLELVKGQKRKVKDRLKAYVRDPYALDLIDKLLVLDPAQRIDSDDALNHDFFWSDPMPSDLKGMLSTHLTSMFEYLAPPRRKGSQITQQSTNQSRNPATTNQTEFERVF
T2 sequence (O60563 whole entry partner): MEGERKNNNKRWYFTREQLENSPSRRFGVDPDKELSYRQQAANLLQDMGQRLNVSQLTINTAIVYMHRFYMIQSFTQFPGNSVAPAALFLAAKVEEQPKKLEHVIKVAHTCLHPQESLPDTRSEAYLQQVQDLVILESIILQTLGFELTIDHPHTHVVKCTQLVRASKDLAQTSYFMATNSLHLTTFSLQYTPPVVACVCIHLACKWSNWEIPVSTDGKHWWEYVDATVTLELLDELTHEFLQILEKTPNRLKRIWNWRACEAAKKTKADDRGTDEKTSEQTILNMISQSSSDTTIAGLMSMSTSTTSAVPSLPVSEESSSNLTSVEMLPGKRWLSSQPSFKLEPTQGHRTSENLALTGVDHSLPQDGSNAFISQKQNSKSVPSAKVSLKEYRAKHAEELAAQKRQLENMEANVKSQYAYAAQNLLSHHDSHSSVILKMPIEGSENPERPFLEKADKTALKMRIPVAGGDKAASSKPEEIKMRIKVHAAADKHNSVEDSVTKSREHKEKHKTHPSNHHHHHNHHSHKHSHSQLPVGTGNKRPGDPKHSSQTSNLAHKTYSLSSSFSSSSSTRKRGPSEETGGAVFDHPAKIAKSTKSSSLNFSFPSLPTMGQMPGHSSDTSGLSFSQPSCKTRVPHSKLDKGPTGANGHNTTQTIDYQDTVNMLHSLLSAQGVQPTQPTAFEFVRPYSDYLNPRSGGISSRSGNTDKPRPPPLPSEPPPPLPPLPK
T3 sequence (Q9NYV4 713-1052 K965R): as the sequence (Q9NYV4 713-1052) above, with K253R counted along it
T3 sequence (O75909 1-267 partner): as the sequence (O75909 1-267 partner limits assumed) above
T3 sequence (Q16531 whole entry): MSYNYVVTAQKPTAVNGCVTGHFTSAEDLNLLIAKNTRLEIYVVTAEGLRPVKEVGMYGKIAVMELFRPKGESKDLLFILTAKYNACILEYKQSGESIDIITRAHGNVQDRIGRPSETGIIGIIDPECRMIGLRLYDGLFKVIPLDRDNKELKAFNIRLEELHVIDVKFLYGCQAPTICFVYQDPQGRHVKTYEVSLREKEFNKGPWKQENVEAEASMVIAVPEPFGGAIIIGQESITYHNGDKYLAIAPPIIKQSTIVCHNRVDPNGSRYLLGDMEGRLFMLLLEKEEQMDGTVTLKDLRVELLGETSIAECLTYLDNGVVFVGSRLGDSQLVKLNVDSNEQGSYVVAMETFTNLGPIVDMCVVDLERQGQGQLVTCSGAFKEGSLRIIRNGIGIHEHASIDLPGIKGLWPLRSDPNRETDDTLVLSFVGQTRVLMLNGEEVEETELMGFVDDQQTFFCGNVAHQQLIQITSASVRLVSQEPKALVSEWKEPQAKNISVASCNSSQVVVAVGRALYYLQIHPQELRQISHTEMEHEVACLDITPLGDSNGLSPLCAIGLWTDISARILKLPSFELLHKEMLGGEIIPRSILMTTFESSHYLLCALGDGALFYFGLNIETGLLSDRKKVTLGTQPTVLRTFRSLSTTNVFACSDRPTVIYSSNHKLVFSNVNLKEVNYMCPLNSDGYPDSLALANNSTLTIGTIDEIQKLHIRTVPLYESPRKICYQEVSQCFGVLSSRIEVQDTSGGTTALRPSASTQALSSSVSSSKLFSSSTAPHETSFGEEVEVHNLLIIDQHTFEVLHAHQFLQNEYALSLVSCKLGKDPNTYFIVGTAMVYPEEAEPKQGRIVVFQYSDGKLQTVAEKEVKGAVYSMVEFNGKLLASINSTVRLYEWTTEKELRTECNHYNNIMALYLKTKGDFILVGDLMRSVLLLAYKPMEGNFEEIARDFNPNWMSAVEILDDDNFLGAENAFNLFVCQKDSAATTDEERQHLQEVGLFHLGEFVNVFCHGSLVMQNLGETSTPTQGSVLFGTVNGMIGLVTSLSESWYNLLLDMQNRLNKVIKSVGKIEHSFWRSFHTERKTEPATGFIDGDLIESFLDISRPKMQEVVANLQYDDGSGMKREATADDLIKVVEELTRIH

Cn1cc(-n2cnc3c(NCc4ccc(-c5ccccn5)cc4)nc(N4CCOCC4)nc32)cn1 [DS21]
Lanthascreen signal, sheet CDK2 (CDK2–cyclin A; Compound 0.038147 nM): 0.01393 and 0.01328 | Lanthascreen signal, sheet CDK2 (CDK2–cyclin A; Compound 0.152588 nM): 0.01386 and 0.01382 | Lanthascreen signal, sheet CDK2 (CDK2–cyclin A; Compound 0.610352 nM): 0.01425 and 0.01382 | Lanthascreen signal, sheet CDK2 (CDK2–cyclin A; Compound 9.76563 nM): 0.01432 and 0.01375 | Lanthascreen signal, sheet CDK2 (CDK2–cyclin A; Compound 39.0625 nM): 0.01417 and 0.01371 | Lanthascreen signal, sheet CDK2 (CDK2–cyclin A; Compound 156.25 nM): 0.01414 and 0.0141 | Lanthascreen signal, sheet CDK2 (CDK2–cyclin A; Compound 625 nM): 0.01356 and 0.01358 | Lanthascreen signal, sheet CDK2 (CDK2–cyclin A; Compound 2500 nM): 0.0127 and 0.009084 | Lanthascreen signal, sheet CDK2 (CDK2–cyclin A; Compound 10000 nM): 0.01132 and 0.011 | IC50 (CDK2–cyclin A; Lanthascreen, average, Extended Data Fig. 8, read-out: CDK2 IC50): > 10000 nM | IC50 (CDK2–cyclin A; Supplementary Table 2, read-out: Lanthascreen IC50 [nM] CDK2): > 10000 nM | IC50 (CDK9–cyclin T; Supplementary Table 2, read-out: Lanthascreen IC50 [nM] CDK9): 953 nM | Lanthascreen TR-FRET signal (raw ratio), sheet CDK9 (CDK9–cyclin T; compound 0.038147 nM): 0.01926 and 0.02033 | Lanthascreen TR-FRET signal (raw ratio), sheet CDK9 (CDK9–cyclin T; compound 0.152588 nM): 0.01912 and 0.02064 | Lanthascreen TR-FRET signal (raw ratio), sheet CDK9 (CDK9–cyclin T; compound 0.610352 nM): 0.01926 and 0.02032 | Lanthascreen TR-FRET signal (raw ratio), sheet CDK9 (CDK9–cyclin T; compound 9.76563 nM): 0.01956 and 0.02095 | Lanthascreen TR-FRET signal (raw ratio), sheet CDK9 (CDK9–cyclin T; compound 39.0625 nM): 0.01859 and 0.0203 | Lanthascreen TR-FRET signal (raw ratio), sheet CDK9 (CDK9–cyclin T; compound 156.25 nM): 0.01696 and 0.01861 | Lanthascreen TR-FRET signal (raw ratio), sheet CDK9 (CDK9–cyclin T; compound 625 nM): 0.01333 and 0.0154 | Lanthascreen TR-FRET signal (raw ratio), sheet CDK9 (CDK9–cyclin T; compound 2500 nM): 0.009112 and 0.01043 | Lanthascreen TR-FRET signal (raw ratio), sheet CDK9 (CDK9–cyclin T; compound 10000 nM): 0.007018 and 0.007122 | DC50 [1]: 3120 nM | EC50 (HEK293T cells; Supplementary Fig. 5, HEK293T, CellTiter Glo, 72h, pre-treatment with 100 nM MLN4924, read-out: Viability EC50, with MLN4924): 4860 nM | EC50 (HEK293T cells; Supplementary Table 2, HEK293T viability, 72 h, compound alone, read-out: Cellular assays EC50): 4940 nM | Toxicity rescue (HEK293T cells; Supplementary Table 2, MLN4924-mediated cytotoxicity rescue, 10 µM used where n.d.): 102% | TR-FRET signal at compound concentration 4.68 nM (CDK12–cyclin K and DDB1; compound concentration 4.68 nM, raw replicate titration data): 0.1432 and 0.1661 | TR-FRET signal at compound concentration 21.6 nM (CDK12–cyclin K and DDB1; compound concentration 21.6 nM, raw replicate titration data): 0.2041 and 0.2174 | TR-FRET signal at compound concentration 36 nM (CDK12–cyclin K and DDB1; compound concentration 36 nM, raw replicate titration data): 0.3026 and 0.3362 | TR-FRET signal at compound concentration 79.2001 nM (CDK12–cyclin K and DDB1; compound concentration 79.2001 nM, raw replicate titration data): 0.4985 and 0.5183 | TR-FRET signal at compound concentration 158.4 nM (CDK12–cyclin K and DDB1; compound concentration 158.4 nM, raw replicate titration data): 0.7975 and 0.8115 | TR-FRET signal at compound concentration 309.6 nM (CDK12–cyclin K and DDB1; compound concentration 309.6 nM, raw replicate titration data): 1.104 and 1.124 | TR-FRET signal at compound concentration 626.401 nM (CDK12–cyclin K and DDB1; compound concentration 626.401 nM, raw replicate titration data): 1.537 and 1.587 | TR-FRET signal at compound concentration 1252.8 nM (CDK12–cyclin K and DDB1; compound concentration 1252.8 nM, raw replicate titration data): 1.789 and 1.917 | TR-FRET signal at compound concentration 2448 nM (CDK12–cyclin K and DDB1; compound concentration 2448 nM, raw replicate titration data): 1.994 and 2.074 | TR-FRET signal at compound concentration 9936.01 nM (CDK12–cyclin K and DDB1; compound concentration 9936.01 nM, raw replicate titration data): 2.1 and 2.149 | TR-FRET signal at compound concentration 20016 nM (CDK12–cyclin K and DDB1; compound concentration 20016 nM, raw replicate titration data): 2.044 and 2.1355 | DDB1–CDK12 complex formation, result in words (CDK12–cyclin K and DDB1; in vitro TR-FRET): poorer glues | EC50 (CDK12–cyclin K and DDB1; sheet MOESM7, read-out: log TR-FRET EC50 (converted)): 299 nM | EC50 (CDK12–cyclin K and DDB1; source data sheet correlations, read-out: TR-FRET EC50): 299 nM | IC50 (CDK12–cyclin K; Supplementary Table 2, read-out: Lanthascreen IC50 [nM] CDK12): 2860 nM | Lanthascreen raw signal, sheet CDK12 (CDK12–cyclin K; compound 0.038147 nM): 0.01384 and 0.01435 | Lanthascreen raw signal, sheet CDK12 (CDK12–cyclin K; compound 0.152588 nM): 0.01397 and 0.0142 | Lanthascreen raw signal, sheet CDK12 (CDK12–cyclin K; compound 0.610352 nM): 0.015 and 0.01469 | Lanthascreen raw signal, sheet CDK12 (CDK12–cyclin K; compound 9.76563 nM): 0.01433 and 0.01471 | Lanthascreen raw signal, sheet CDK12 (CDK12–cyclin K; compound 39.0625 nM): 0.01481 and 0.01445 | Lanthascreen raw signal, sheet CDK12 (CDK12–cyclin K; compound 156.25 nM): 0.01408 and 0.01362 | Lanthascreen raw signal, sheet CDK12 (CDK12–cyclin K; compound 625 nM): 0.01314 and 0.0125 | Lanthascreen raw signal, sheet CDK12 (CDK12–cyclin K; compound 2500 nM): 0.01076 and 0.01056 | Lanthascreen raw signal, sheet CDK12 (CDK12–cyclin K; compound 10000 nM): 0.008221 and 0.008078
